Several values for one entry are separate records, joined by “and”; a condition that tells them apart may be missing. Equal values may be shown once.
Columns and labels:
Alpha-1 adrenoreceptor = settings: cited from earlier work
OCT2 A270S variant = experiment: in vitro; settings: human, Stereoselectivity OCT2_A270S, 100 μM racemic substance, two minutes; uptake ratio of enantiomers, given as for (R)
OCT2 (wild-type) = biological target: T1, OCT2 (wild-type) (Homo sapiens, UniProt O15244); experiment: Stereoselective uptake into OCT2 (wild-type)-overexpressing HEK293 cells; settings: human, Stereoselectivity OCT2_WT, 100 μM racemic substance, two minutes; uptake ratio of enantiomers, given as for (R)
T1 sequence (O15244 1-555 S270A): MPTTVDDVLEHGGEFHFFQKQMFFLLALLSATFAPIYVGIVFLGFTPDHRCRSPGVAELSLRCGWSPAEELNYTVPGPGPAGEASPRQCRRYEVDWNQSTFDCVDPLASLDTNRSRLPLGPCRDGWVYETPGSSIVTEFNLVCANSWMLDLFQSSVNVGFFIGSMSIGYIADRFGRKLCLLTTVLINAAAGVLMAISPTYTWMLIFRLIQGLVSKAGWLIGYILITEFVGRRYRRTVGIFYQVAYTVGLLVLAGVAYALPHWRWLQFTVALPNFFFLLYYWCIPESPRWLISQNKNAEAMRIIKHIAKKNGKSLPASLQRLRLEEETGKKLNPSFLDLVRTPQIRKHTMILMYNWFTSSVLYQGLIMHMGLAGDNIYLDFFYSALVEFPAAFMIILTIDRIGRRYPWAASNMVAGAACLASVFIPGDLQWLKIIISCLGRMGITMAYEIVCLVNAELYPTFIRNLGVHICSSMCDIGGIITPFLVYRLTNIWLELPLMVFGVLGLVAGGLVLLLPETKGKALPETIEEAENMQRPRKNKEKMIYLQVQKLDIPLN
Description: (§1) All transport experiments were carried out in HEK293 cells stably overexpressing human MATs or OCTs. […] All cells were regularly cultivated in DMEM supplemented with 10% (v/v) FCS, penicillin (100 U/mL) and streptomycin (100 μg/mL)and kept in culture for no longer than 30 passages.
(§2) For the uptake experiments, 300,000 cells were plated in poly-D-lysine precoated 24-well plates 48 h ahead of the transport experiment. On the day of experiment, cells were initially washed once with 37 °C pre-warmed HBSS+ (Hanks buffered salt solution supplemented with 10 mM HEPES) and subsequently incubated with the substrates dissolved in pre-warmed HBSS+ for exactly two minutes. Incubation was stopped by adding ice-cold HBSS+ followed by two washing steps. After this, cells were lysed with 80% acetonitrile containing 10 ng/mL milnacipran as internal standard for high-performance liquid chromatography coupled to tandem mass spectrometry (HPLC-MS/MS) analysis. For every experiment, two additional wells per cell line were lysed using RIPA buffer for protein quantification. Total protein was quantified using the bicinchoninic acid assay [42]. This was later used for normalization of the uptake data.
(§3) Intracellularly accumulated test substances were quantified by HPLC-MS/MS analysis using a Shimadzu Nexera HPLC system with a SIL-30AC autosampler, a CTO-20AC column oven, a LC-30AD pump, and a CBM-20A controller (Shimadzu, Kyoto, Japan). Stereoselective chromatography was carried out on a [sequence] CBH HPLC column (100 × 3 mm inner dimension with 5 μM particle size; Sigma-Aldrich, Darmstadt, Germany) with a corresponding 10 × 3 mm guard column. Reversed phased chromatography was carried out using an ammonium acetate (NH4Ac) buffered aqueous mobile phase with isopropyl alcohol (IPA) as organic solvent. […] The order of elution of the enantiomers was obtained from available reference literature [43] or by applying enantiopure reference compounds to the chiral HPLC. […] However, in every other case where the order of elution was available, the (R)-enantiomer eluted first. Given the structural similarity of the investigated substances and the fact that separation was performed on the same column with almost identical mobile phases, we assume that this order of elution for our compound set is always the (R)- before the (S)-enantiomer.
(§4) Detection was performed with an API 4000 tandem mass spectrometer (AB SCIEX, Darmstadt, Germany) operating in multiple-reaction-monitoring mode. Quantification was performed using the Analyst 1.6.2 software (AB SCIEX, Darmstadt, Germany) and quantified by comparison to standard curves with known concentrations.
(§5) All uptake data were normalized to protein content to account for variation in the number of seeded sells. Transporter-mediated net uptake was calculated by subtracting uptake into empty vector-transfected control cells from uptake into transporter-transfected cells. Kinetic parameters were then determined after non-linear regression following the Michaelis–Menten equation (v = vmax × [S]/(Km + [S])) using GraphPad Prism (Version 5.01 for Windows, GraphPad Software, La Jolla, CA, USA). Vmax refers to the maximum transport velocity and Km is defined as the substance concentration required to reach half of vmax. The intrinsic clearance Clint was calculated as the quotient of vmax over Km.
(§6) HEK293 cells stably overexpressing wild-type or mutant OCT2 were incubated with 100 μM racemic substance for two minutes.

SERT [1] = biological target: T2, SERT (Homo sapiens, UniProt P31645); experiment: Stereoselective uptake into SERT-overexpressing HEK293 cells;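 also: uptake into HEK293 cells stably expressing human SERT over 2 min, enantiomers measured in cell lysate by chiral HPLC-MS/MS, normalized to total protein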
DAT = DAT (Homo sapiens, UniProt Q01959); experiment: Stereoselective uptake into DAT-overexpressing HEK293 cells;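 also: intracellular accumulation measured by chiral HPLC-MS/MS in stably transfected HEK293 cells, normalized to total protein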
[2] = tested on: OCT2 wild-type versus A270S variant; experiment: in vitro; settings: human, Transporter selectivity, OCT2 wild-type versus A270S, 100 μM racemic substance, two minutes; given as for WT
SERT [3] = biological target: T2, SERT
OCT3 = biological target: T3, OCT3 (Homo sapiens, UniProt O75751); experiment: Stereoselective uptake into OCT3-overexpressing HEK293 cells;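 also: intracellular accumulation in HEK293 cells measured by chiral HPLC-MS/MS after a 2 min substrate exposure at 37 °C, uptake normalized to total protein (bicinchoninic acid assay)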
T3 sequence (O75751 1-556): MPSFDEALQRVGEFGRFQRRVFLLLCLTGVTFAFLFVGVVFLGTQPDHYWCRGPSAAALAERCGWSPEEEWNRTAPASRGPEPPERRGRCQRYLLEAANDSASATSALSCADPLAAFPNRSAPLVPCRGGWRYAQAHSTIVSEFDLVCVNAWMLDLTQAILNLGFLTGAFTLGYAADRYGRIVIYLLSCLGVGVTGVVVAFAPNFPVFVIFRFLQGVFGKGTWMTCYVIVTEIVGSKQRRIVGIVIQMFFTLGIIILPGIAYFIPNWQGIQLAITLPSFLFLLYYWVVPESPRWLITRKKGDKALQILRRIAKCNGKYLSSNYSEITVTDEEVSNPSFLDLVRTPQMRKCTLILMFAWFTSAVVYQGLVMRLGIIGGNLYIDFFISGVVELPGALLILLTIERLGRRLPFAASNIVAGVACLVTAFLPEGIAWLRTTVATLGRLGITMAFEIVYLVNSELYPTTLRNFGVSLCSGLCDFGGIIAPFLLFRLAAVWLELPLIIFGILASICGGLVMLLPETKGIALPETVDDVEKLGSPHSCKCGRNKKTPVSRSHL

SERT [4] = biological target: T2, SERT; experiment: in vitro
OCT2 [5] = biological target: T4, OCT2 (Homo sapiens, UniProt O15244); experiment: Stereoselective uptake into OCT2 (wild-type)-overexpressing HEK293 cells; settings: OCT2; for selectivity ratio at 2 min: human, ratio between enantiomers
T4 sequence (O15244 1-555 S270A): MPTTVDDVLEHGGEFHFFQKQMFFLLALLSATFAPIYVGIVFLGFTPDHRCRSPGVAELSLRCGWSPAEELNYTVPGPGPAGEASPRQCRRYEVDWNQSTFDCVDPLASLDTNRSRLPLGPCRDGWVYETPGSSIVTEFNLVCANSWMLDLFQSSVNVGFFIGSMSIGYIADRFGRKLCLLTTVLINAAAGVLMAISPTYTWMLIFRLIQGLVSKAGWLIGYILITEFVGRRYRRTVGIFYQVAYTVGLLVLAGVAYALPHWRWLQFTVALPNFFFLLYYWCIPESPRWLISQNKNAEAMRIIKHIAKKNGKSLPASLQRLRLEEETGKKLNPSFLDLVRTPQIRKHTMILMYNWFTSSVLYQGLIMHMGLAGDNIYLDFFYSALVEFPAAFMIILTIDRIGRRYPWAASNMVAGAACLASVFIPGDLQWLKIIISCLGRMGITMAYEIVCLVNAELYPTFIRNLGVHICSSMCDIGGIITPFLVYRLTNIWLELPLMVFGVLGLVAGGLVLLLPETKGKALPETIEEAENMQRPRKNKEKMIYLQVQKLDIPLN
Description: as §1, §2, §3, §4, §5, §6

NET = NET (Homo sapiens, UniProt P23975); experiment: Stereoselective uptake into NET-overexpressing HEK293 cells;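 also: intracellular enantiomers quantified in cell lysates by chiral HPLC-MS/MS after a 2 min substrate incubation, with uptake normalized to total cellular protein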
Description: as §1, §2
Intracellularly accumulated test substances were quantified by HPLC-MS/MS analysis using a Shimadzu Nexera HPLC system with a SIL-30AC autosampler, a CTO-20AC column oven, a LC-30AD pump, and a CBM-20A controller (Shimadzu, Kyoto, Japan). Stereoselective chromatography was carried out on a [sequence] CBH HPLC column (100 × 3 mm inner dimension with 5 μM particle size; Sigma-Aldrich, Darmstadt, Germany) with a corresponding 10 × 3 mm guard column. Reversed phased chromatography was carried out using an ammonium acetate (NH4Ac) buffered aqueous mobile phase with isopropyl alcohol (IPA) as organic solvent. […] The order of elution of the enantiomers was obtained from available reference literature [43] or by applying enantiopure reference compounds to the chiral HPLC. […] Given the structural similarity of the investigated substances and the fact that separation was performed on the same column with almost identical mobile phases, we assume that this order of elution for our compound set is always the (R)- before the (S)-enantiomer.
as §4, §5

OCT1 = biological target: T5, OCT1 (Homo sapiens, UniProt O15245); experiment: Stereoselective uptake into OCT1-overexpressing HEK293 cells; settings: for selectivity ratio at 2 min: human;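 as to all read-outs here: enantiomers quantified inside cells by chiral HPLC-MS/MS, uptake normalized to total protein from bicinchoninic acid assay, substrates applied in HBSS+ buffer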
T5 sequence (O15245 1-554): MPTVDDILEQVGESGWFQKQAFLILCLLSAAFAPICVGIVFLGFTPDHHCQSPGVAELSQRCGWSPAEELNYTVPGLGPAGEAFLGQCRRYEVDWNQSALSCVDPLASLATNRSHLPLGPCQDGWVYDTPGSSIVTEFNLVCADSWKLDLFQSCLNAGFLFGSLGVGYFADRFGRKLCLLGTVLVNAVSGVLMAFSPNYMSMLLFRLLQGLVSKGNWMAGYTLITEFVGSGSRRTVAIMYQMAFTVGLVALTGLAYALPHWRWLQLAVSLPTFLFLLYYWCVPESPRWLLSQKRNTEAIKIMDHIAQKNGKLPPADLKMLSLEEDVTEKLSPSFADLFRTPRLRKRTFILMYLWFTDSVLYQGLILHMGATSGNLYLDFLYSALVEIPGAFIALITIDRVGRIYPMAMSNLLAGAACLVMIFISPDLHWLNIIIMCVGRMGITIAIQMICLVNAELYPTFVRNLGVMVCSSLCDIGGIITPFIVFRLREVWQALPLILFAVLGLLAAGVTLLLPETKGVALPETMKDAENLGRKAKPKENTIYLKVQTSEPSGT

OCT2 [6] = biological target: T6, OCT2 (Homo sapiens, UniProt O15244, S270A); experiment: Stereoselective uptake into OCT2 (wild-type)-overexpressing HEK293 cells; settings: OCT2; ratio between enantiomers, given as for (R) or for 1
T6 sequence (O15244 1-555 S270A): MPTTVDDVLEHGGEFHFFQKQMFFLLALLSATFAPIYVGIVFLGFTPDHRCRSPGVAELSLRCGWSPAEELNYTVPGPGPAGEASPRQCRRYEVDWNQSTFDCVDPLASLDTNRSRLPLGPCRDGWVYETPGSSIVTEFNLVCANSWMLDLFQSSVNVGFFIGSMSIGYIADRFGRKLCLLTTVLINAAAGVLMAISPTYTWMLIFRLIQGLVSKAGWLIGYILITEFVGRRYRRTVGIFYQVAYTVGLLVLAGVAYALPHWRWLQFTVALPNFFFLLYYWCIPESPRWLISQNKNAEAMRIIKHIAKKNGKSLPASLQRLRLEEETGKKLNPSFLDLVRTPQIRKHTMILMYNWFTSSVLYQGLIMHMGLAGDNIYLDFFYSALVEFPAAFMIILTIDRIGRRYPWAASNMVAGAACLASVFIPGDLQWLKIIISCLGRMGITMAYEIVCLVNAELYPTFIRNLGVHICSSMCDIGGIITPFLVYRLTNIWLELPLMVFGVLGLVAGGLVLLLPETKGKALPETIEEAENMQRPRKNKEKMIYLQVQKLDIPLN
Description: as §1, §2, §3, §4, §5, §6

[7] = substrate: NC[C@H](O)c1ccc(O)cc1; experiment: cells, lysate or membranes; settings: other: HEK293 cells overexpressing human DAT; racemic substrate, two minutes; net uptake minus empty vector control; 37.0 °C;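 also: intracellular accumulation measured by chiral HPLC-MS/MS in stably transfected HEK293 cells, normalized to total protein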
[8] = substrate: CNC[C@@H](O)c1ccc(O)cc1; experiment: cells, lysate or membranes; settings: other: HEK293 cells overexpressing human DAT; racemic substrate, two minutes; net uptake minus empty vector control; 37.0 °C;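 also: intracellular accumulation measured by chiral HPLC-MS/MS in stably transfected HEK293 cells, normalized to total protein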
[9] = substrate: [H][C@](O)(CNC)c1ccc(O)cc1; experiment: cells, lysate or membranes; settings: other: HEK293 cells overexpressing human DAT; racemic substrate, two minutes; net uptake minus empty vector control; 37.0 °C;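 also: intracellular accumulation measured by chiral HPLC-MS/MS in stably transfected HEK293 cells, normalized to total protein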
[10] = substrate: NC[C@@H](O)c1ccc(O)cc1; experiment: cells, lysate or membranes; settings: other: HEK293 cells overexpressing human DAT; racemic substrate, two minutes; net uptake minus empty vector control; 37.0 °C
[11] = substrate: NCC(O)c1cccc(O)c1; experiment: cells, lysate or membranes; settings: other: HEK293 cells overexpressing human DAT; racemic substrate, two minutes; net uptake minus empty vector control; 37.0 °C

NET, sequence (P23975 whole entry): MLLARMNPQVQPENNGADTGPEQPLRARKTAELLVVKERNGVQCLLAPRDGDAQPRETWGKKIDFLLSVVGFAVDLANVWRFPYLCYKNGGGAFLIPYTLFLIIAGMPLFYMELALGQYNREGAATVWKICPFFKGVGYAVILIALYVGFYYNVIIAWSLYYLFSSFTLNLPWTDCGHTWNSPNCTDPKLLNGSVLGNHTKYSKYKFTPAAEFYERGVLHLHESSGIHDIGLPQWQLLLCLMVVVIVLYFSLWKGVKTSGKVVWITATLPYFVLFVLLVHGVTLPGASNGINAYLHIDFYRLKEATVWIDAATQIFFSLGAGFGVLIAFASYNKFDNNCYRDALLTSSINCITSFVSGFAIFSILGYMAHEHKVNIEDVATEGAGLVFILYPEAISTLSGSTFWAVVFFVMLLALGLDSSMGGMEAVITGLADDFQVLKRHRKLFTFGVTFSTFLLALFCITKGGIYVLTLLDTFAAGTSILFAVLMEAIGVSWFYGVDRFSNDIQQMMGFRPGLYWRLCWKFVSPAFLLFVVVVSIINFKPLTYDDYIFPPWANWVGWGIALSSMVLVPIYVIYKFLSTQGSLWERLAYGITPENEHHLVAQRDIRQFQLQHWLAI
T2 sequence (P31645 whole entry): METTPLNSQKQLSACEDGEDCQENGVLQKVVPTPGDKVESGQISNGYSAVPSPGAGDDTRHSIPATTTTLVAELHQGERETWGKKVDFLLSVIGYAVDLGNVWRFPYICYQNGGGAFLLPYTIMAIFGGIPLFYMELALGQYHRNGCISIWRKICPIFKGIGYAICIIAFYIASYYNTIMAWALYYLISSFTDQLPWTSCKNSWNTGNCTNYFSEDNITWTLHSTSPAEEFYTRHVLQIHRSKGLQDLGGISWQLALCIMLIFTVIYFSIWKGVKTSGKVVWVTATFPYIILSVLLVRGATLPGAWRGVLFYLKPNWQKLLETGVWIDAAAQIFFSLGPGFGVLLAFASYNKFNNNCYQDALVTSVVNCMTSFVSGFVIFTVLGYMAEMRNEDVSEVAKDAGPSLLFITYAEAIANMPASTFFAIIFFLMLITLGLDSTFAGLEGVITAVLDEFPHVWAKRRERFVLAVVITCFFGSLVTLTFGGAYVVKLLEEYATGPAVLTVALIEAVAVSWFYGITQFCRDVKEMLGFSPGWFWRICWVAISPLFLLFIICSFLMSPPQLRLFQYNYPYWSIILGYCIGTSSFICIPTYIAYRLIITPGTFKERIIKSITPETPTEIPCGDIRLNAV

CNCC(O)c1ccc(O)cc1 (centres unmarked) [Synephrine]
Enantiomeric Activity Ratio (R/S) in Receptor Binding Alpha-1 (Alpha-1 adrenoreceptor): 75
selectivity ratio at 2 min, 100 μM (OCT2 A270S variant): 1
selectivity ratio at 2 min, 100 μM (OCT2 (wild-type)): 1.17

CNC[C@@H](O)c1cccc(O)c1 [(S)-Phenylephrine]
Stereoselectivity Km (SERT [1]): 1.89 fold
Stereoselectivity Vmax (SERT [1]): 1.49 fold
Vmax ± SEM (SERT [1]): 529
Km (SERT [1]; read-out: Km ± SEM, HEK293 cells overexpressing human SERT, racemic substrate, two minutes, net uptake minus empty vector control): 173 µM
Clint ± SEM (DAT; DAT, quotient of vmax over Km): 11.6 mL × g Protein^−1 × min^−1
Stereoselectivity Vmax (DAT; DAT, ratio between enantiomers, given as for (R) or for 1): 1.56 fold
Stereoselectivity Km (DAT; DAT, ratio between enantiomers, given as for (R) or for 1 (first-eluting)): 1.06 fold
Vmax ± SEM (DAT; HEK293 cells overexpressing human DAT, racemic substrate, two minutes, net uptake): 392 pmol × mg Protein^−1 × min^−1
selectivity ratio at 2 min (DAT; human): 1.48
Km (DAT; read-out: Km ± SEM, HEK293 cells overexpressing human DAT, racemic substrate, two minutes, net uptake minus empty vector control): 33.7 µM
selectivity ratio at 2 min, 100 μM [2]: 1.13
Clint ± SEM (SERT [3]): 11.6
Clint ± SEM (OCT3; OCT3, quotient of vmax over Km): 4.23 mL × g Protein^−1 × min^−1
Stereoselectivity Vmax (OCT3; OCT3, ratio between enantiomers, given as for (R) or for 1): 3.33 fold
Stereoselectivity Km (OCT3; OCT3, ratio between enantiomers, given as for (R) or for 1 (first-eluting)): 1.19 fold
selectivity ratio at 2 min (OCT3; human): 2.79
selectivity ratio (SERT [4]): 2.82
Clint ± SEM (OCT2 [5]; quotient of vmax over Km): 27.3 mL × g Protein^−1 × min^−1
selectivity ratio at 2 min (OCT2 [5]; Stereoselectivity ClInt, given as for (S) or for 2): 1.02
selectivity ratio at 2 min (OCT2 [5]; Stereoselectivity Km, given as for (R) or for 1 (first-eluting)): 1.89
selectivity ratio at 2 min (OCT2 [5]; Stereoselectivity Vmax, given as for (R) or for 1): 2.04
Vmax ± SEM (NET; HEK293 cells overexpressing human NET, racemic substrate, two minutes, net uptake): 220 pmol × mg Protein^−1 × min^−1
Clint ± SEM (NET; NET, quotient of vmax over Km): 52.3 mL × g Protein^−1 × min^−1
Stereoselectivity Vmax (NET; NET, ratio between enantiomers, given as for (R) or for 1): 1.79 fold
selectivity ratio at 2 min (NET; human): 1.43
Km (NET; read-out: Km ± SEM, HEK293 cells overexpressing human NET, racemic substrate, two minutes, net uptake minus empty vector control): 4.16 µM
Clint ± SEM (OCT1; OCT1, quotient of vmax over Km): 8.85 mL × g Protein^−1 × min^−1
selectivity ratio at 2 min (OCT1; Stereoselectivity ClInt): 1.11
selectivity ratio at 2 min (OCT1; Stereoselectivity Km, OCT1, ratio between enantiomers, given as for (S) or for 2 (second-eluting)): 1.02
selectivity ratio at 2 min (OCT1; Stereoselectivity Vmax, OCT1, ratio between enantiomers, given as for (R) or for 1): 1.08

NC[C@H](O)c1ccc(O)c(O)c1 [Norepinephrine]
Enantiomeric Activity Ratio (R/S) in Receptor Binding Alpha-1 (Alpha-1 adrenoreceptor): 33
selectivity ratio at 2 min, 100 μM (OCT2 A270S variant): 2.06
Stereoselectivity Vmax (OCT2 [6]): approximately two-fold
selectivity ratio at 2 min, 100 μM (OCT2 (wild-type)): 2.05

B1: DAT (Homo sapiens) (protein)
chain: MSKSKCSVGLMSSVVAPAKEPNAVGPKEVELILVKEQNGVQLTSSTLTNPRQSPVEAQDRETWGKKIDFLLSVIGFAVDLANVWRFPYLCYKNGGGAFLVPYLLFMVIAGMPLFYMELALGQFNREGAAGVWKICPILKGVGFTVILISLYVGFFYNVIIAWALHYLFSSFTTELPWIHCNNSWNSPNCSDAHPGDSSGDSSGLNDTFGTTPAAEYFERGVLHLHQSHGIDDLGPPRWQLTACLVLVIVLLYFSLWKGVKTSGKVVWITATMPYVVLTALLLRGVTLPGAIDGIRAYLSVDFYRLCEASVWIDAATQVCFSLGVGFGVLIAFSSYNKFTNNCYRDAIVTTSINSLTSFSSGFVVFSFLGYMAQKHSVPIGDVAKDGPGLIFIIYPEAIATLPLSSAWAVVFFIMLLTLGIDSAMGGMESVITGLIDEFQLLHRHRELFTLFIVLATFLLSLFCVTNGGIYVFTLLDHFAAGTSILFGVLIEAIGVAWFYGVGQFSDDIQQMTGQRPSLYWRLCWKLVSPCFLLFVVVVSIVTFRPPHYGAYIFPDWANALGWVIATSSMAMVPIYAAYKFCSLPGSFREKLAYAIAPEKDRELVDRGEVRQFTLRHWLKV
Km [7]: 20.5 µM
Vmax [7]: 2054 pmol × mg Protein^−1 × min^−1
Km [8]: 44.7 µM
Vmax [8]: 463 pmol × mg Protein^−1 × min^−1
Km [9]: 36.8 µM
Vmax [9]: 849 pmol × mg Protein^−1 × min^−1
Km [10]: 19.6 µM
Vmax [10]: 1959 pmol × mg Protein^−1 × min^−1
Km [11]: 15.6 µM and 18.6 µM
Vmax [11]: 2003 pmol × mg Protein^−1 × min^−1 and 3103 pmol × mg Protein^−1 × min^−1

From paper PMC9599461, “Stereoselectivity in the Membrane Transport of Phenylethylamine Derivatives by Human Monoamine Transporters and Organic Cation Transporters 1, 2, and 3” (Biomolecules, 2022)
